Experimental data published in US20050038022A1, “Method for treatment of cancer and compositions for use therein” (Unisearch Limited, priority 2001, published 2005).

What was measured:
[1] = test system: Hep3-B; assay: [3H]thymidine incorporation assay, Hep3-B; type: cell-based, human; details: 5 days
Description: (§1) HepG2, Hep3-B, Hep1-6, SKHEP-1, PLC/PRF/5, and HTC cells were obtained from European Collection of Cell Cultures (ECACC; U.K), Novikoff was obtained from Cancer Research Centre (DKFZ) Heidelberg, Germany. Cells were cultured in MEM or DMEM supplemented with 10% FBS, 50 units/ml penicillin, 50 units/ml streptomycin, 25 μg/ml amphotericin B (Gibco, Grand Island, N.Y.) and maintained subconfluent at 37° C. in humidified incubators containing 5% CO2. Albendazole (Sigma, Australian subsidiary) was dissolved in absolute ethanol at concentrations that were 1000-fold higher than the final medium concentration.

[2] = test system: SKHEP-1; assay: [3H]thymidine incorporation assay, SKHEP-1; type: cell-based, human
Description: as §1

[3] = test system: SKHEP-1 cells; assay: Cell cycle analysis by flow cytometry; type: cell-based, human; details: 3 days (FIG. 3)
Description: SKHEP-1 cells (5×10^4) were plated onto six-well tissue culture plates. Triplicate samples were treated with the indicated concentrations of albendazole (100, 250 and 1000 nM). The medium was changed everyday. After 72 h the relevant group of cells were collected, washed twice with phosphate buffer and treated with ribonuclease, Triton X-100 and propidium iodide (Sigma) based on the method described by Taylor [12]. The percentage of cells within the G1, S, and G2-M phases of the cell cycle were determined using a FACScan flow cytometer (Becton Dickinson FACSort) and Multifit LT cell cycle analysis software (Verity Software INC.)

[4] = test system: liver tumors (CRC or HCC); assay: Albendazole in patients with advanced malignancy (phase 1 trial); type: in vivo, human
Description: The study was single-centre, open and non-controlled. Nine patients (8 male and 1 female) with either advanced CRC and hepatic metastasis or HCC were included in this study. One patient with neuroendocrine cancer and mesothelioma was also treated on a compassionate basis. The patients aged between 38-79 years were inoperable and had failed existing chemotherapy and also, except for two, had measurable and increasing tumor markers. The majority had also already failed hepatic artery chemotherapy. The diagnosis of CRC or HCC was made by ultrasound, CT or MRI scan, confirmed by histology and by determination of CEA or AFP levels for CRC or HCC respectively. Only patients with expected survival of more than one month were enrolled into the study. The study was approved by the Human Ethics Committee for Research of SESAHS. The protocol and the aim of the study was clearly explained to each patient and informed consent obtained. The duration of this study was four weeks but was to be stopped if leukopenia (WBC<[…]) or severe hepatocellular injury (ALT or AST 2× upper limit) developed. All patients received albendazole (400 mg scored tablets, Smith Kline Beecham, Australian subsidiary) 10 mg/kg orally in two or three divided doses for a planned duration of four weeks. This is the clinical dose of albendazole employed in the treatment of parasitic diseases. Patients were evaluated every three days by clinical examination together with full blood tests to monitor tumor markers, hematopoesis, liver and kidney function toxicity. A partial response (PR) was defined as a 50% or more decrease in the value of the markers. In addition there must be no new lesions or progression of any other lesions. Stable disease was defined as a decrease of less than 50%, or an increase of less than 25% in the value of tumor markers, while progressive disease (PD) was a 25% or more increase in the value of the tumor markers or the appearance of any new lesions.

[5] = test system: NIH:OVCAR-3; assay: Thymidine assay, ovarian cancer cell line; type: cell-based, human
Description: To study the feasibility of using albendazole in the treatment of peritoneal disease, the human ovarian cancer cell line NIH:OVCAR-3 was selected. This is a cell line that grows quite slowly but is tumorogenic in nude mice therefore allowing for the drug to be studied under both in-vitro and in-vivo conditions.
After finding the right conditions for the growth of cells in culture, cells were treated for 5 days with various concentrations of albendazole.

[6] = test system: NIH:OVCAR-3; assay: Cell count, ovarian cancer cell line; type: cell-based, human; details: OVCAR-3, 0.1 and 1 micromoles/L, evident from day 1
Description: Cells were treated with either the medium alone (control) or 0.1 and 1 micromoles/L of albendazole for 0, 1, 3, 6 or 10 days and the number of viable cells counted. […] This was evident from day 1 after the treatment

[7] = test system: SKHEP-1; assay: Combination with methimazole (MT), SKHEP-1 growth; type: cell-based; details: SKHEP-1, albendazole 0.25 μM, 5 days
Description: The effect of inhibition of metabolism of albendazole on its antiproliferative activity was investigated using […] and the methimazole as an inhibitor of albendazole
5000 cells each of HepG2 and S EP1 were plated into 24 wells plates and treated for 5 days with various concentrations of albendazole alone or together with MT.

CCCSc1ccc2nc(NC(=O)OC)[nH]c2c1 [albendazole, methyl 5-propylthio-1H-benzimidazole-2-yl carbamate] was tested, and the “[3H]thymidine incorporation” value ([1]; albendazole 10 nM) was 105.7 ± 8.6 % control, the “[3H]thymidine incorporation” value ([1]; albendazole 100 nM) was 68.5 ± 5.7 % control and the “[3H]thymidine incorporation” value ([1]; albendazole 500 nM) was 22.6 ± 1.8 % control. For the same compound, the “[3H]thymidine incorporation” value ([1]; albendazole 1000 nM) was 9.3 ± 0.7 % control, the inhibition at 1 µM ([2]; Homo sapiens, SK-HEP1, 120 h, SKHEP-1, 1000 nM albendazole, 5 days) was 99.4% and the “thymidine incorporation after 1 day exposure” value ([2]; SKHEP-1, 1 day, concentrations of 250 nM and over (FIG. 1a)) was “profound inhibition of thymidine incorporation”. The “[3H]thymidine incorporation” value ([2]; SKHEP-1, albendazole 10 nM, 5 days) was 89.6 ± 6.1 % control, the “[3H]thymidine incorporation” value ([2]; SKHEP-1, albendazole 100 nM, 5 days) was 63.7 ± 3.1 % control and the “[3H]thymidine incorporation” value ([2]; SKHEP-1, albendazole 500 nM, 5 days) was 4.5 ± 1.1 % control. The “effect on cell cycle distribution” value ([3]; SKHEP-1, 250 nM) was “accumulation of cells in the G0-G1 phase”, the “effect on cell cycle distribution” value ([3]; SKHEP-1, 1000 nM) was “arrest and accumulation of cells in the G2-M phase” and the “disease outcome by tumor markers” value ([4]; 10 mg/kg/day oral, planned 28 days, nine patients (FIG. 6)) was “stabilization of the disease in three, and progression of the disease in the other two patients”. The “liver and kidney function tests” value ([4]; during the course of the trial, 10 mg/kg/day oral) was “no significant changes”, the “Comments (adverse event)” value ([4]; patient 1, HCC, 19 days treatment) was “neutropenia;” and the “Comments (adverse event)” value ([4]; patient 2, CRC, 14 days treatment) was “neutropenia;”. For the same compound, the “Comments (adverse event)” value ([4]; patient 8, CRC) was “neutropenia”, the “serum CEA levels” value ([4]; patient 9, for the duration of the treatment (4 weeks)) was “less than 10 μg/L” and the disease outcome ([4]; patient number 1 (HCC), treatment stopped on day 19) was “stabilization of the disease”. The fatal outcome ([4]; patient number 1, after stopping albendazole, almost certainly related to therapy) was “died of neutropaenic sepsis”, the neutropenia ([4]; patients 1, 2 and 8, drug had to be withdrawn) was “significant neutropenia developed” and the “serum CEA levels” value ([4]; patients 6, 7 and 8, 10 mg/kg/day oral) was “stable CEA levels”. The inhibition at 0.25 µM ([5]; Homo sapiens, 120 h, OVCAR-3, 0.25 micromoles/L, 5 days) was roughly 90%, the inhibition at 0.5 µM ([5]; Homo sapiens, 120 h, OVCAR-3, 0.5 micromoles/L, 5 days, read-out: inhibition of cell growth) was 100% and the “lowest concentration with an effect on cell proliferation” value ([5]; OVCAR-3, 5 days) was 0.001 µmol/L. For the same compound, the “inhibition of proliferation (3H-thymidine uptake)” value ([5]; OVCAR-3 in vitro (FIG. 5)) was “dose dependent inhibition of proliferation”, the “degree of activity relative to liver or colorectal cancer cells” value ([5]; OVCAR-3 versus liver or colorectal cancer cells, fold) was roughly 10 and the “number of viable cells” value [6] was “profound reduction in cell number”. The growth inhibition [7] was “profoundly inhibited”.
